Measurements taken from patent US9307761B2, “Microbial composition” (Rohm and Haas Company, priority 2011, dated 2016).
Read-outs that look alike come from different tables or passages of the source.

What was measured:
Format in all cases: cell-based
[1] = tested on: Escherichia coli (E. coli—ATCC #10536); experiment: Automated assessment of efficacy in model surfactant medium (2.85% sodium cocoyl glycinate and 1.85% sodium lauroamphoacetate), 15 seconds exposure, delta OD450/OD590; details: for MBC: Escherichia coli, ATCC10536, 15 s, in 2.85% sodium cocoyl glycinate + 1.85% sodium lauroamphoacetate solution at pH 10, E. coli, read-out: MBC (minimum biocidal concentration); for No. of replicates showing growth (out of 4) / Δ OD 450 nm = OD450 (time = 16 hours) − OD450 (time zero), Mean / Δ OD 590 nm OD590 (time = 16 hours) − OD590 (time zero), Mean: model surfactant solution, 15 s exposure
Protocol: Micobiocidal Activity of Actives as Per the Invention in a Model Surfactant Medium Test Methodology for Automated Assessment of Efficacy in Surfactant Base
Solutions were prepared such that the concentrations of the surfactant components and test actives were 1.1×the final desired concentration in order to allow for dilution with the bacterial inoculum in the test. The solutions were manually adjusted to […] by dropwise addition of sodium hydroxide solution, as measured with a pH meter at ambient temperature.
Tests were conducted using standard microtiter plate assays using an automated liquid handling system, 270 μl of the surfactant test solution was pipetted into each well of the microtitre plate and 30 μl of the bacterial suspension was then added. After exactly 15 seconds of bacterial exposure, a 30 μl volume of bacterial cells was withdrawn and transferred to 270 μl of D/E quench solution. After 5 minutes in the D/E quench, the optical density (OD) was measured for each plate in turn at two specific wavelengths (450 nm and 590 nm). These provide a dual check of antimicrobial activity, as the OD450 reading is specific for the yellow colour of D/E quench when bacterial growth is observed, whereas OD590 is specific for the initial purple colour of the D/E quench which is retained if no bacterial growth is observed. After the time zero OD measurements, plates were then incubated at 37° C. overnight (16 hours) before repeating the OD measurements. Delta OD values were calculated by subtracting […]. Bacterial growth is observed as art increase in OD450 and a decrease in ΔOD590. To identify antibacterially efficacious systems (those preventing appreciable bacterial growth after incubation), the following threshold changes in OD readings have been adopted: if (1). OD450 increases by less than 0.2 absorbance unit on incubation and (2). OD590 decreases by less than 0.35 unit on incubation. Conversely, where OD450 increases by more than 0.2 AU and OD590 decreases by more than 0.35 unit after incubation, corresponding to a colour shift from purple to yellow, the test system allows bacterial growth and is not deemed efficacious, four replicate measurements in the same plate have been made for each test system. The number of replicate wells showing either bacterial growth or no growth is also readily assessed by eye by following the colour change.
Dose responses for individual components and binary mixtures of actives at a fixed concentration ratio were generated by sequential dilution of liquors with further surfactant solution to obtain a series of endpoints.
In some selected cases, the combinations were also tested at the weight ratio 1:1.

[2] = tested on: Escherichia coli (10536 strain); experiment: 15 seconds contact kill assay of actives in water, mean bacterial survival NMBS; details: for NMBS: alone, 15 seconds contact
[3] = tested on: Escherichia coli (E. coli—ATCC #10536); experiment: Synergy tests: high resolution MBC microtiter plate assay, 15 seconds contact, phosphate buffer containing […] dipropylene glycol
Text: The concentrations and ratios may also vary under different test conditions or with different test methods.
One measure of synergy is the industrially accepted method described by Kull, F. C.; Eisman, P. C.; Sylwestrowicz, H. D. and Mayer, R. L., in Applied Microbiology 9:538-541 (1961), using the ratio determined by the formula: Qa/QA+Qb/QB=Synergy Index (“SI”) wherein: • QA=concentration of compound A (first component) in percent, acting alone, which produced an end point (MBC of Compound A). • Qa=concentration of compound A in percent, in the mixture, which produced an end point. • QB=concentration of compound B (second component) in percent, acting alone, which produced an end point (MBC of Compound B). • Qb=concentration of compound B in percent, in the mixture, which produced an end point.
When the sum of Qa/QA and Qb/QB is greater than one, antagonism is indicated. […] The lower the SI, the greater is the synergy shown by that particular mixture. The minimum biocidal concentration (MBC) of a microbicide is the lowest concentration tested under a specific set of conditions that provides complete kill of the tested microorganisms.
Synergy tests were conducted using standard microtiter plate assays with phosphate buffer containing 3.5% dipropylene glycol (DPG). In this method, a wide range of combinations of chemicals was tested by conducting high resolution MBC assays of Component (A) in the presence of various concentrations of Component (B). High resolution MBCs were determined by adding varying amounts of microbicide to one column of a microtiter plate and doing subsequent […] dilutions using an automated liquid handling system to obtain a series of closely spaced endpoints. The MBC plate was inoculated one column at a time with the test microorganism. An aliquot of the inoculated well was transferred at 15 seconds to a plate containing a neutralizing agent (D/E Neutralizing Broth), mixed and held for 5 minutes before being transferred to a growth plate containing trypticase soy broth (TSB). The TSB plate was incubated at 37° C. and read for the presence/absence of growth at 24 hours. The lowest level tested that provided complete kill (as evidenced by no growth in the microtitre plate) of the test organisms in 15 seconds is the minimum biocidal concentration (MBC).
The synergy of the combinations of the present invention was determined against a bacterium, Escherichia coli (E. coli—ATCC #10536), at a concentration of approximately 1×10^8 bacteria, per mL. This microorganism is representative of natural contaminants in many consumer and industrial applications.

[4] = single active alone at 0.2% w/v
[5] = single active alone at 0.3% w/v
[6] = E. coli 10536, at Qa and Qb, <1 synergy, 1 additivity, >1 antagonism
[7] = single active alone at 0.1% w/v
[8] = single active alone at 0.175% w/v

Structure (SMILES)	No. of replicates showing growth (out of 4) [1, 4]	Δ OD 450 nm = OD450 (time = 16 hours) − OD450 (time zero), Mean [1, 4]	Δ OD 590 nm OD590 (time = 16 hours) − OD590 (time zero), Mean [1, 4]	No. of replicates showing growth (out of 4) ([1]; single active alone at […] w/v)	Δ OD 450 nm = OD450 (time = 16 hours) − OD450 (time zero), Mean ([1]; single active alone at […] w/v)	Δ OD 590 nm OD590 (time = 16 hours) − OD590 (time zero), Mean ([1]; single active alone at […] w/v)	SI (Synergy Index = Qa/QA + Qb/QB) [3, 6]	No. of replicates showing growth (out of 4) [1, 7]	Δ OD 450 nm = OD450 (time = 16 hours) − OD450 (time zero), Mean [1, 7]	Δ OD 590 nm OD590 (time = 16 hours) − OD590 (time zero), Mean [1, 7]	other results
CC1=CC[C@@H](CO)[C@H](C)C1 (relative stereo) [Floralol, Trans-4,6-dimethyl-3-Cyclohexene-1-methanol]	4	−1.43	0.35	1	−0.29	0.23	–	–	–	–	MBC [1]: 4000 µg/mL; No. of replicates showing growth (out of 4) [1, 5]: 4; Δ OD 450 nm = OD450 (time = 16 hours) − OD450 (time zero), Mean [1, 5]: −1.20; Δ OD 590 nm OD590 (time = 16 hours) − OD590 (time zero), Mean [1, 5]: 0.55; NMBS ([2]; 0.3% w/v, E. coli): 0 log CFU/ml; NMBS ([2]; 0.4% w/v, E. coli): 0 log CFU/ml; MBC (minimum biocidal concentration) ([2]; E. coli, in water, component alone): 0.3 % w/v; NMBS ([2]; […] w/v, E. coli): 7.92 log CFU/ml; MBC of antimicrobial alcohol ([2]; antimicrobial alcohol alone, complete bacterial kill against E. coli): 0.3 % (w/v)
CC1=CC(C)C(CO)C(C)C1 (stereo not shown) [2,4,6-trimethyl-3-cyclohexene-1-methanol]	4	−1.50	0.29	4	–	–	1.00	–	–	–	MBC [1]: 4000 µg/mL
CC(C)(C)c1ccccc1O [2-tert-butylphenol]	–	–	–	–	–	–	1.00	–	–	–	–
C/C=C/c1ccccc1O [(E)-2-(prop-1-enyl)phenol]	4	−0.53	0.63	4	−0.57	0.58	1.00	4	−0.60	0.59	MBC of the component acting alone (QA or QB) ([3]; E. coli 10536, component alone, complete kill in 15 seconds): 0.8 weight %
CCCc1ccc(O)cc1 [4-propylphenol]	4	–	–	4	–	–	1.00	4	−1.59	0.34	–
CC1=CCC(C(C)CO)CC1 (stereo not shown) [2-(4-methylcyclohex-3-enyl)propan-1-ol]	–	–	–	–	–	–	1.00	–	–	–	–
CC(C)(C)c1ccccc1O [2-ter-butylphenol]	–	–	–	–	–	–	–	–	–	–	No. of replicates showing growth (out of 4) [1, 8]: 4; Δ OD 450 nm = OD450 (time = 16 hours) − OD450 (time zero), Mean [1, 8]: −1.08; Δ OD 590 nm OD590 (time = 16 hours) − OD590 (time zero), Mean [1, 8]: 0.57
CCCc1ccccc1O [2-propyl phenol]	–	–	–	–	–	–	–	–	–	–	MBC of phenolic compound ([2]; phenolic compound alone, complete bacterial kill against E. coli): 0.125 % (w/v)
Cc1cc(O)ccc1C(C)C [4-isopropyl-3-methylphenol]	–	–	–	4	−1.53	0.23	–	–	–	–	–
Cc1ccc(C(C)C)cc1O [5-isopropyl-2-methylphenol]	4	−0.52	0.62	4	–	–	–	4	−0.52	0.62	SI (Synergy Index = Qa/QA + Qb/QB) [3]: 1.00
